Values of other authors, collected in patent US8450455B2, “cRGD peptide derivative and its manufacture, and implant having a coating containing a cRGD peptide derivative” (Biotronik AG, priority 2010, dated 2013).

Columns and labels:
integrin ανβ3 = integrin ανβ3 (Homo sapiens, UniProt P05106+P06756); details: integrin expressed by tumor cells
[1] = 1-octanol/water, 25° C.

Chain of integrin ανβ3 (P06756 31-889 limits assumed): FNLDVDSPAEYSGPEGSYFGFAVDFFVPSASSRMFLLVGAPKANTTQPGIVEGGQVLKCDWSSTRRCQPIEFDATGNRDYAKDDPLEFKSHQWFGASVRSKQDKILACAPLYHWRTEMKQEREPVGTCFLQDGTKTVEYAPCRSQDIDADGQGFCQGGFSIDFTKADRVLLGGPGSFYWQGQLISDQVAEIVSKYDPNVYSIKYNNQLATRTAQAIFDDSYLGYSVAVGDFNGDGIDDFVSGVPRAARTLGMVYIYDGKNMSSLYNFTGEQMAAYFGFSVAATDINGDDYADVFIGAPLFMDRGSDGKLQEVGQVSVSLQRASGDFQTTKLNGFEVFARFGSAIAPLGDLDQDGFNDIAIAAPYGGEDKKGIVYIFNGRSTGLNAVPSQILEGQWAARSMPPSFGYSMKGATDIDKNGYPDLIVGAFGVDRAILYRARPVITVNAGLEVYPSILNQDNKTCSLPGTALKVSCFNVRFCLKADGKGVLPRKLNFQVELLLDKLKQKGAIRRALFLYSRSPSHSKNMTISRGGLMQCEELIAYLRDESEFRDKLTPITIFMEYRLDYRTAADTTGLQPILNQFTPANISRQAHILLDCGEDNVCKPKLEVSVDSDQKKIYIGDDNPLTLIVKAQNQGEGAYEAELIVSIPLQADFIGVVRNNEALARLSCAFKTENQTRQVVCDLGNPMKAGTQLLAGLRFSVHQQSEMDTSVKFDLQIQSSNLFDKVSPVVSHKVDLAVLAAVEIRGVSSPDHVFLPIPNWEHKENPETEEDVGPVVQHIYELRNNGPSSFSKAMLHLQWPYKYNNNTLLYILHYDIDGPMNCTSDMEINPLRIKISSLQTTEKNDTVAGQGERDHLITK
Chain of integrin ανβ3 (P06756 891-1048 partner limits assumed): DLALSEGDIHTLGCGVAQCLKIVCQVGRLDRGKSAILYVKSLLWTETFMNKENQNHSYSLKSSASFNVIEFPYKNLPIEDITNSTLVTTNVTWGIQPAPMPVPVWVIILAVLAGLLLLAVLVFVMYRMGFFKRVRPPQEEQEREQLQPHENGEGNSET
Chain of integrin ανβ3 (P05106 27-788): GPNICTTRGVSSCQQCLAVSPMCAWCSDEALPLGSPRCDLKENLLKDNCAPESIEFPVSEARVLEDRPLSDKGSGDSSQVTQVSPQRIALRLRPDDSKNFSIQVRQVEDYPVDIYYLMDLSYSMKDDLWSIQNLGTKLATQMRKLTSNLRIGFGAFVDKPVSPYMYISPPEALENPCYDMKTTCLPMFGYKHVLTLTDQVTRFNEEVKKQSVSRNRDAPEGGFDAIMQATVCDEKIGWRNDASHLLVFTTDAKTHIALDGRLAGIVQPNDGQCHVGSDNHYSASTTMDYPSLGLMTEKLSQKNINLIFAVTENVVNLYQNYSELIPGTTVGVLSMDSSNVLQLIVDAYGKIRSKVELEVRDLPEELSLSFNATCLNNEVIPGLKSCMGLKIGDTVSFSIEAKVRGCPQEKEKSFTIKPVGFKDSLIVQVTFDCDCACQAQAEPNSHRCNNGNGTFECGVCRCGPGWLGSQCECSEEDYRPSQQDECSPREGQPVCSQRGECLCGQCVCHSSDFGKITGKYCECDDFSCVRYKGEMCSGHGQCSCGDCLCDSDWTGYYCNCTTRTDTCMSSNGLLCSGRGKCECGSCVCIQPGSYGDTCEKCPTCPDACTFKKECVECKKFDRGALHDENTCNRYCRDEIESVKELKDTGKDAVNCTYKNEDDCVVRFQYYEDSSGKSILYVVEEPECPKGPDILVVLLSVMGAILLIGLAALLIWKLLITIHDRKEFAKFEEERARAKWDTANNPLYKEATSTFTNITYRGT

For c(RGDfV), the “inhibition of integrin ανβ3” value (integrin ανβ3) is listed as “well-inhibited”.
For `CCCCCCCN` [1-aminoheptane], the logP [1] is listed as 2.57.
